Here are results for 1 compound from patent US20250065017A1, “Fractionating Extracellular Matrix to Modulate Bioactivity and the Host Response” (University of Pittsburgh - Of the Commonwealth System of …, priority 2014, published 2025).

The assay concerns Sprague Dawley rats. Description: Rat skeletal muscle injury model: macrophage phenotype immunolabeling. Type of assay: in vivo. As for the experimental part:
An established rodent skeletal muscle injury model was used to evaluate the effect of the COX1/2 inhibitor, Aspirin, on the ECM scaffold mediated constructive remodeling response. Briefly, three days prior to the surgical procedure, animals were randomly assigned to either the Aspirin treated (3 mg/mL Aspirin in drinking water) or control (vehicle) group. Bilateral 1.5 cm×1.5 cm partial thickness defects were created in the abdominal musculature. A size-matched pre-cast UBM hydrogel and an overlying 2×2 cm single layer sheet of UBM was then placed in the muscle defect area. The remodeling response was evaluated following 3, 7, 14, and 35 days by quantitative histomorphologic metrics (Wolf M T, Carruthers […], Crapo P M, Huber A, Burnsed O A, Londono R, Johnson […] and others. Polypropylene surgical mesh coated with extracellular matrix mitigates the host foreign body response. J Biomed Mater Res A 2013 and Wolf […], Brennan-Pierce E P, Johnson S A, Carruthers […] hydrogel derived from decellularized dermal extracellular matrix. Biomaterials 2012;33(29):7028-38), including characterization of macrophage phenotype and neo tissue deposition. Thirty-two female Sprague Dawley rats (350-400 g at implantation) were purchased from Harlan Laboratories. Rats were housed on a 12 hour light-dark cycle and fed standard laboratory chow and water ad libitum. Animals were randomly assigned to either the Aspirin treated or control (vehicle) group. Three days prior to surgery, animals in the Aspirin group had their drinking water supplemented with 3 mg/mL Aspirin which was continued throughout the experimental time course. […] Salicylates in whole blood were determined using the Salicylates Detection Kit from Neogen according to the manufacturer's instructions. […] CD206 and CD86: Cellular expression of markers of macrophage polarization (CD206 and CD86) were determined by immunolabeling using previously described methods ([…], Londono […], Carruthers […]. Preparation and characterization of a biologic scaffold from esophageal mucosa. Biomaterials 2013;34(28):6729-37). […]

The mark [1] stands for this setting: vs non-Aspirin treated animals throughout the time course.

Turning to `CC(=O)Oc1ccccc1C(=O)O` [Aspirin], the “M2:M1 ratio (CD68+CD206+ to CD68+CD86+ cells)” value (main effect for treatment, UBM implant) is on record as “reduction in the M2:M1 ratio”. In addition, under setting [1], the “M1 (CD86+) macrophages” value is recorded as “increase in M1 (CD86+) macrophages” and the “M2 (CD206+) macrophages” value was “reduction in M2 (CD206+)”.
